Results taken from ChEMBL document CHEMBL3774347, “Docking and Linking of Fragments To Discover Jumonji Histone Demethylase Inhibitors” (J Med Chem, 2016).

Experiments:
[1] = target: T1, Lysine-specific demethylase 2A (Homo sapiens, UniProt Q9Y2K7); test: Inhibition of KDM2A (unknown origin) expressed in Escherichia coli using Biotin H3 (28 to 48 residues) Me2 KDM2A Cognate Ligande/10 uM alpha-ketoglutarate as substrate/cofactor preincubated for 15 mins followed by substrate addition measured after 30 mins by alphascreen assay
T1 sequence (Q9Y2K7 whole entry): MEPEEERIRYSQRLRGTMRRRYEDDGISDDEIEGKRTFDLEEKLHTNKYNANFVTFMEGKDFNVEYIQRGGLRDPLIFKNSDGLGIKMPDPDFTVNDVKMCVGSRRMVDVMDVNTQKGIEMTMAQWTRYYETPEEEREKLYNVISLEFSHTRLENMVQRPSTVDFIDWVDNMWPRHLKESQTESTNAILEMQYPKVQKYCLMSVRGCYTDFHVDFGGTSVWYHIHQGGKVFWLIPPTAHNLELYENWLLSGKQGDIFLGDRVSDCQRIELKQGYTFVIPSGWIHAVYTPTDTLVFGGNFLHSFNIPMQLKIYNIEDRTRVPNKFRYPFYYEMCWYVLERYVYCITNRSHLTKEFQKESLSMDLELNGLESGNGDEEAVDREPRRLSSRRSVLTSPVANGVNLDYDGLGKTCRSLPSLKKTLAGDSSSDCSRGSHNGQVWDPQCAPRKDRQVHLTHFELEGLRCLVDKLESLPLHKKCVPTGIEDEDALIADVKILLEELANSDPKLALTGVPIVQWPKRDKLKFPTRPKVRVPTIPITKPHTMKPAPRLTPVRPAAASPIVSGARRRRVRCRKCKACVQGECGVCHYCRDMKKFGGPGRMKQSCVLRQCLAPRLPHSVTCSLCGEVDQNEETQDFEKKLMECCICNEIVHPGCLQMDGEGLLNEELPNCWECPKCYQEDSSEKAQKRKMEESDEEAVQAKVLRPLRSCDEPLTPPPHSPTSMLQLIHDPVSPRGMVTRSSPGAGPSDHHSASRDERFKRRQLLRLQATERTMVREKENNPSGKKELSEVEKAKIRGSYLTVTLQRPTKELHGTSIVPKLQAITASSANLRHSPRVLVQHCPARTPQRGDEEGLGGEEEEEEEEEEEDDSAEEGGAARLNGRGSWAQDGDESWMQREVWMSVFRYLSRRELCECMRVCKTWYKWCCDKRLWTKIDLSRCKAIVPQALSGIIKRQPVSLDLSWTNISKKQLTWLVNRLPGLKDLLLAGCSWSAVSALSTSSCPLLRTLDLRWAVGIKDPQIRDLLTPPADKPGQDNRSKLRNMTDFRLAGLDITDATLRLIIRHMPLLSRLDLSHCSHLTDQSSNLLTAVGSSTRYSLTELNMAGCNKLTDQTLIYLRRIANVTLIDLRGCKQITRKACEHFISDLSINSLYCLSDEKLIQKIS

[2] = target: T2, Lysine-specific demethylase 4D (Homo sapiens, UniProt Q6B0I6); test: Inhibition of KDM4D (unknown origin) expressed in Escherichia coli using H3 (1 to 21 residues) K9Me3-GGK-Biotin KDM4 Cognate Ligand/10 uM alpha-ketoglutarate as substrate/cofactor preincubated for 5 mins followed by substrate addition measured after 20 mins by alphascreen assay
T2 sequence (Q6B0I6 whole entry): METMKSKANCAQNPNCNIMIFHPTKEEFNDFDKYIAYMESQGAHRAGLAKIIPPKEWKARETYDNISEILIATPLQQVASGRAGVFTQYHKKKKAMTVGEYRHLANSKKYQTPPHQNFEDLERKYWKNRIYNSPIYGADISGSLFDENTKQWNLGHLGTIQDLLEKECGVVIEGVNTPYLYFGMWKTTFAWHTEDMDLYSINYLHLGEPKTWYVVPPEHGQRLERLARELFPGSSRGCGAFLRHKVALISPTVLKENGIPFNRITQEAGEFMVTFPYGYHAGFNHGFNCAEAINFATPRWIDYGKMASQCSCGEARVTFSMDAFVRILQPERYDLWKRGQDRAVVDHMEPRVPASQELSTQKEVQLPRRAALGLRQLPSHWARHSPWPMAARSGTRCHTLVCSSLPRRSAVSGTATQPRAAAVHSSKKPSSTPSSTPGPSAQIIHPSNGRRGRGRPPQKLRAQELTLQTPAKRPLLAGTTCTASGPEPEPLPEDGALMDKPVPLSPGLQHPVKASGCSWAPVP

[3] = target: T3, Lysine-specific demethylase 4C (Homo sapiens, UniProt Q9H3R0); test: Inhibition of N-terminal His6-tagged KDM4C (1 to 352 residues) (unknown origin) expressed in Escherichia coli Rosetta 2(DE3)pLysS using biotinylated histone H3 (1 to 21 residues) lysine 9 trimethylated peptide/2 uM alpha-ketoglutarate as substrate/cofactor measured after 45 mins by TR-FRET assay; details: read-out: IC50
T3 sequence (Q9H3R0 whole entry): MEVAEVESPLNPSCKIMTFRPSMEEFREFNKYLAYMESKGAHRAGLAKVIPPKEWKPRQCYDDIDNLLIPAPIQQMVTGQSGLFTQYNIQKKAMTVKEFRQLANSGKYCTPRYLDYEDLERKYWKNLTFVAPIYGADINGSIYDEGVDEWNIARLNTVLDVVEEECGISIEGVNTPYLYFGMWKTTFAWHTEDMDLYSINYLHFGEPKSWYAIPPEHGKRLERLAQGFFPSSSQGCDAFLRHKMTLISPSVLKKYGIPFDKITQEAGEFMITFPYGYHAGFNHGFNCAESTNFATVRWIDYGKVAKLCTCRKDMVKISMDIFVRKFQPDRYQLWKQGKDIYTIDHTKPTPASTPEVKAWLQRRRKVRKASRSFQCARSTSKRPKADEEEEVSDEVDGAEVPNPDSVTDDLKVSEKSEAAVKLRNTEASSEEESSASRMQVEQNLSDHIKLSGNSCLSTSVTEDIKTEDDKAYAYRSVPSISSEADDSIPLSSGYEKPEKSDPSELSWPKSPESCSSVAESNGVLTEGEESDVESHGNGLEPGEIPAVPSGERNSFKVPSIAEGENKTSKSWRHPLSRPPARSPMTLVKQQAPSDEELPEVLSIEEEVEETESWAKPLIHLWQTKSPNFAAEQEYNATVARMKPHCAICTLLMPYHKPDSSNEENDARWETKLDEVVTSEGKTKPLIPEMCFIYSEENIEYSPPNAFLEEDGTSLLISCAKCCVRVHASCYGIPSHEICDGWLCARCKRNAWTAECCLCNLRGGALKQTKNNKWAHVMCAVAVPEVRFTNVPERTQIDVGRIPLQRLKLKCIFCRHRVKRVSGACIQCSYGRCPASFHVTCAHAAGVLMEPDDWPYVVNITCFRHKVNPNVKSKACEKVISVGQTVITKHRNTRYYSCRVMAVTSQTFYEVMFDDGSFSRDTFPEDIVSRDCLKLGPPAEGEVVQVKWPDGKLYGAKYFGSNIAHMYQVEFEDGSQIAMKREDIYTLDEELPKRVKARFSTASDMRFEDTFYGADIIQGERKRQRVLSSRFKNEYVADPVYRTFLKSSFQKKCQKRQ

Compound `CC(=O)Nc1ccc(O)c(-c2cc(C(=O)O)ccn2)c1` has an IC50 [1] of over 100 µM, an IC50 [2] of 14 µM and an IC50 [3] of 1.2 µM.
For `Cc1cc(C(=O)Nc2ccc(O)c(-c3cc(C(=O)O)ccn3)c2)no1`, the IC50 [1] was 76 µM, the IC50 [2] was 9.2 µM and the IC50 [3] was 0.065 µM.
With `COc1cccc(CC(=O)Nc2ccc(O)c(-c3cc(C(=O)O)ccn3)c2)c1` the IC50 [1] was 89 µM, the IC50 [2] was 11 µM and the IC50 [3] was 0.14 µM.
In the case of `COCC(=O)Nc1ccc(O)c(-c2cc(C(=O)O)ccn2)c1`, the IC50 [1] is reported as 91 µM, the IC50 [2] is reported as 4.2 µM and the IC50 [3] is reported as 0.14 µM.
`O=C(O)c1ccnc(-c2cc(NC(=O)c3ccc(O)cc3)ccc2O)c1` showed an IC50 [1] of 89 µM, an IC50 [2] of 13 µM and an IC50 [3] of 0.064 µM.
